Experimental data reported in US7004171B2, “System for transvaginal drug delivery” (Hi-Gienic Intra Vaginal Technologies Ltd., priority 2002, dated 2006).

Settings: Sorensen buffer pH 7.4, 37° C., 24 hours agitation, excess drug
Text: The release medium used for these experiments was the Sorensen-Walbum buffer, chosen here due to its lack of absorbance in the UV range, thus causing less interference with the analytical drug detection process. The buffer consisted of glycine (0.1 M) and NaCl (0.1 M), adjusted to pH 7.4 with NaOH (0.1M).

Work on `CC(C)Cc1ccc(C(C)C(=O)O)cc1` (stereo not shown) [Ibuprofen] yielded a saturation concentration of 100 µg/mL.
